{"source": "paper PMC5394417", "about": "“Investigating the molecular mechanism of positive and negative allosteric modulators in the calcium-sensing receptor dimer” (Scientific Reports, 2017)", "target": "T1, HA-S170A/D190A CaSR mutant (Rattus norvegicus, UniProt P48442, D190A/S170A)", "T1 construct": "mGluR5 signal peptide (N); expressed in transfected cells; host or cells: HEK293T", "T1 sequence (P48442 20-1079 S170A/D190A)": "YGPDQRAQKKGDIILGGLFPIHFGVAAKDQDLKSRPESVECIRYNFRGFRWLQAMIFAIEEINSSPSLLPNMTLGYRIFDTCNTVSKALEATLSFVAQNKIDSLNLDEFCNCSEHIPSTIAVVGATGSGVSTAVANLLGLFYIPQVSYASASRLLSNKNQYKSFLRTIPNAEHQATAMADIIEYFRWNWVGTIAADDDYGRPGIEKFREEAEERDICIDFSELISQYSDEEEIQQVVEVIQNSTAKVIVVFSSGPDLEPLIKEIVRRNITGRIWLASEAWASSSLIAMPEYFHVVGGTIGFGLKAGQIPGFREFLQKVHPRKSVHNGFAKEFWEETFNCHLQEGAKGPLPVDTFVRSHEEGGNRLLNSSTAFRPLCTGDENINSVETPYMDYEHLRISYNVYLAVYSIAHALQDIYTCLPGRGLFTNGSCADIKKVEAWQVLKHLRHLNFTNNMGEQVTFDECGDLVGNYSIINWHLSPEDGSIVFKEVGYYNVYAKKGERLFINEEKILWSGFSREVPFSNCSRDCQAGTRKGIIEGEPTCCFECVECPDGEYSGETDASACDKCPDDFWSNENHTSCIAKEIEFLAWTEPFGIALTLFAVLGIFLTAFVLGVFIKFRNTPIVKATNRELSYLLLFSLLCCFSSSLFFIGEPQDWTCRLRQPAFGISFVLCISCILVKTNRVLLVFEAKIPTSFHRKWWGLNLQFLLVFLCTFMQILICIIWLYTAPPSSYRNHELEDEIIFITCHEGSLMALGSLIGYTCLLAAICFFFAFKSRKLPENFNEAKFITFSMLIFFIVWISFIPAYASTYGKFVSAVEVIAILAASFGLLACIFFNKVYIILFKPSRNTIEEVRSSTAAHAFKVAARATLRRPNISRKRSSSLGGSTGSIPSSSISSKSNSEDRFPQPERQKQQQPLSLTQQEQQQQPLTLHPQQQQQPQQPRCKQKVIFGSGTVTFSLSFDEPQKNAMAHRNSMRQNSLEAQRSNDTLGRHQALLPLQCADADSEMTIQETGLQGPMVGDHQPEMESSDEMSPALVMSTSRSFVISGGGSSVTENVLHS", "assay": "IP-One assay, HEK293T transiently transfected", "type": "cell-based"}
{"smiles": "[Ca+2]", "note": "[Ca^2+]", "values": [{"measurement": "EC50", "setting": "Ca^2+ alone", "value": 31.8, "unit": "mM"}, {"measurement": "Hill coefficient ± S.E.M.", "setting": "Ca^2+ alone", "value": "4.05 ± 0.43"}, {"measurement": "pEC50 ± S.E.M.", "setting": "Ca^2+ alone", "value": "1.50 ± 0.04"}, {"measurement": "Max ± S.E.M.", "setting": "normalized to maximum response of WT CaSR", "value": "49 ± 2.5", "unit": "%"}]}
